The values below come from US10227324B2 (Shanghai Haiyan Pharmaceutical Technology Co., Ltd., priority 2014, dated 2019).

Like-named read-outs stand apart in the source and are kept apart here.

The target in test [1] is T1, PI3K-α kinase (p110α/p85α) (Homo sapiens, UniProt P42336).
T1 construct: purchased Invitrogen PV4788
Put plainly: Determination of PI3K kinase activity (ADP Transcreener, fluorescence polarization). The format is biochemical. Conditions: ATP 10 μM. The method, then:
(§1) The inhibition of PI3K kinase activity by the compound to be tested was determined by the following method. The working concentration of each component in the 25 μL enzyme reaction system was: p110α/p85α 3 ng (or p110β/p85α 60 ng, or p110δ/p85α 90 ng, or p110γ 100 ng), ATP 10 μM, PIP2: PS (Invitrogen PV5100) 30 μM and the DMSO concentration was 2% after addition of the compound to be tested.
(§2) At the time of the test, the compound to be tested was dissolved in dimethylsulfoxide (DMSO) according to the desired concentration of the experiment. The compound to be tested was gradiently diluted 3 times (0.00046-1 μM, 8 concentration points) with 10% DMSO. 5 μL of the compound to be tested was added to each well of a 96-well plate (Greiner 675076) in duplicate. […] 10 μL of ATP/PIP2: PS and 10 μL of the PI3K enzyme working solution were added to each well in a 96-well plate. The plate was shaken and mixed uniformly, and then incubated at 25° C. for 1 hour. At the same time, ADP and ATP (0.01 μM, 0.02 μM, 0.04 μM, 0.06 μM, 0.08 μM[…], 0.1 μM, 0.25 μM, 0.5 μM, 1 μM, 2 μM, 5 μM, 10 μM, 12 concentration points) were diluted with buffer to set the standard curve. After completion of the enzyme reaction, 25 μL of ADP assay solution (1% 100×ADP tracer, 0.79% ADP antibody and 10% 10× reaction stop solution) was added and incubated at 25° C. for 1 hour. Fluorescence polarization value [mP] of each well was measured with a Perkin Elmer Victor X5 Fluorescent Microplate. The ADP concentration [ADP] was calculated from the ADP/ATP standard curve and the IC50 values were calculated using the XLFit software.

For test [2], the target named is T2, PI3K-β kinase (p110β/p85α) (Homo sapiens, UniProt P42338).
T2 construct: purchased Millipore 14-603
The test is described as above. The format is biochemical. Conditions: Table 1; ATP 10 μM; read-out: PI3K-β/nM (IC50 of inhibitory activity against PI3K kinase). The protocol:
as §1, §2

The test system of another test is T47D cells. Put plainly: Cell inhibitory activity detected by MTT assay, T47D. The format is cell-based. To be noted: Homo sapiens, T47D, 72 h, read-out: T47D cell (IC50/nM), cell growth inhibition. The protocol: (§3) The MTT assay procedure and steps were carried out as well known to those skilled in the art, and all the reagents used in the methods were commercially available. The cells in logarithmic growth phase were digested with 0.25% EDTA trypsin (Gibco, 25200-056) and resuspended in fresh medium. 90 μL of the cell suspension was inoculated into a 96-well cell culture plate (BD Faclon 353072) with a suitable cell density and cultured at 37° C. under 5% CO2. After the cells adhered, 10 μL of the test compound at different concentrations (0.0046-10 μM, 8 concentration points) was added and incubated for another 72 h. 10 μL of MTT (5 mg/mL PBS solution) (Sigma, M5655) was added to react for 4 h. The absorbance at 492 nm was measured by using Thermo Scientific Multiskan MK3 microplate reader and IC50 was calculated using XLFIT 5.0 software (UK IDBS). T47D cell culture medium: RPMI-1640 medium (Hyclone SH30809.01B)+10% FBS (Gibco 10099-141)

The subject of another test is MCF-7 cells. In words: Cell inhibitory activity detected by MTT assay, MCF-7. The format is cell-based. Conditions: Homo sapiens, MCF7, 72 h, read-out: MCF-7 cell (IC50/nM), cell growth inhibition. The method, then:
as §3, with “MCF-7” for “T47D”, “DMEM” for “RPMI-1640”, “SH30243.01B+10%” for “SH30809.01B)+10%”

The next test has as its target T3, PI3K-γ kinase (p110γ) (Homo sapiens, UniProt P48736).
T3 construct: purchased Invitrogen PV4786
In words: Determination of PI3K kinase activity (ADP Transcreener, fluorescence polarization). To be noted: Table 1; ATP 10 μM; read-out: PI3K-γ/nM (IC50 of inhibitory activity against PI3K kinase). In kind it is biochemical. The protocol: The PI3K kinase used in the experiment: p110α/p85α (Invitrogen PV4788), p110β/p85α (Millipore 14-603), p110δ/p85α (Millipore 14-604M), and p110γ (Invitrogen PV4786).
as §1
as §2, with “duplicate. 2.5× buffer was prepared and 1 μL of DTT (Millipore 20-265) was added to each 800 μL of 2.5× buffer.” for “duplicate.”

Test [3] has as its target T4, PI3K-δ kinase (p110δ/p85α) (Homo sapiens, UniProt O00329).
T4 construct: purchased Millipore 14-604M
The test is described as above. In kind it is biochemical. To be noted: Table 1; ATP 10 μM; read-out: PI3K-δ/nM (IC50 of inhibitory activity against PI3K kinase). The method, then: as §1, §2

[4] abbreviates: Table 1, read-out: PI3K-α/nM (IC50 of inhibitory activity against PI3K kinase).
Setting [5] is: Table 2, read-out: PI3K-α/nM (IC50 of inhibitory activity against PI3K-α kinase).

T4 sequence (O00329 whole entry): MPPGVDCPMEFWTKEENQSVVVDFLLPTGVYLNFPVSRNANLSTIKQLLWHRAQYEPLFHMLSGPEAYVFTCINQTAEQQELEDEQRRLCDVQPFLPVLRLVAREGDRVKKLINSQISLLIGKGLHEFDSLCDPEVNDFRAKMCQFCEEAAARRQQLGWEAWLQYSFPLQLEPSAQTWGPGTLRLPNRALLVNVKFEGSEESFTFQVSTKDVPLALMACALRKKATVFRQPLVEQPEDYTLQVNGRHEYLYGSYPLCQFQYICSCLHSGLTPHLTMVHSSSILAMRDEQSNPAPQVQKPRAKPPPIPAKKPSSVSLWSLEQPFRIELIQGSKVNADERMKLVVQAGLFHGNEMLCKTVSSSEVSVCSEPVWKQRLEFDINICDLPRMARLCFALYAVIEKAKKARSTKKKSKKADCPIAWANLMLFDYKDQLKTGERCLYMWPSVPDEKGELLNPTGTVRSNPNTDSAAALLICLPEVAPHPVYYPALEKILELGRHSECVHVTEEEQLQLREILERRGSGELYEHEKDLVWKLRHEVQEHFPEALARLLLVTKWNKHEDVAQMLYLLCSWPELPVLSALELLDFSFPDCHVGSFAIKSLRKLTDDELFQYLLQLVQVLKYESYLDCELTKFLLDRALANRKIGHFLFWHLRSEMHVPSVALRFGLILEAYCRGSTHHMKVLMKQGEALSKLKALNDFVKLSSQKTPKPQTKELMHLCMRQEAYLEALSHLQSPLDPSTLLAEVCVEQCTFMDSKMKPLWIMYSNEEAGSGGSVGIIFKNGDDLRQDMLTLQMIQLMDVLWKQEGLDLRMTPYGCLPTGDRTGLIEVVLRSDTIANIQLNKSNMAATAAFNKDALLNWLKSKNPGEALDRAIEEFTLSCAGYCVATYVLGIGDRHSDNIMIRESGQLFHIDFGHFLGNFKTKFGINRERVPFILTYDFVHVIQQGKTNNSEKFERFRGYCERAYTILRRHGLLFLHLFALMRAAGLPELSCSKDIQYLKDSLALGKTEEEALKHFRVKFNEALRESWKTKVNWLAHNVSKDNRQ
T4 sequence (P27986 whole entry partner): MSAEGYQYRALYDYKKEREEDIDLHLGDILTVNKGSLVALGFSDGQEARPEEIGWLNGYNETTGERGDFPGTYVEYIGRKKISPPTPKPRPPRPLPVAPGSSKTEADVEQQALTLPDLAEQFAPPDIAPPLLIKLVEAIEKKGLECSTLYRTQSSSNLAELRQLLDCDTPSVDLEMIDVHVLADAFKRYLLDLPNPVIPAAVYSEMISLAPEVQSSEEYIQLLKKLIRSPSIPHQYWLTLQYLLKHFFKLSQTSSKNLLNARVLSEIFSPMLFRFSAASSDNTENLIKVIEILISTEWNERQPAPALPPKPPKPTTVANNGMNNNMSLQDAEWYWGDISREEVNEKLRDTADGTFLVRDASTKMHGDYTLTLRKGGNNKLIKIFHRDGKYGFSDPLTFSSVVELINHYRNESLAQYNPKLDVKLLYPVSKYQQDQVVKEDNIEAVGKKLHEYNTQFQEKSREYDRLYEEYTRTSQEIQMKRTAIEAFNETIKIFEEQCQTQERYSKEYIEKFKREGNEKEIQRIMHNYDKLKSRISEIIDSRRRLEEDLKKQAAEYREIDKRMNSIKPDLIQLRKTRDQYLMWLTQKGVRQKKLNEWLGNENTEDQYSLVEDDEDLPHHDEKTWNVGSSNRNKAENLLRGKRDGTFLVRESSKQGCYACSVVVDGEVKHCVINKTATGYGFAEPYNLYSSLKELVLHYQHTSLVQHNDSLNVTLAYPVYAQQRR
T3 sequence (P48736 whole entry): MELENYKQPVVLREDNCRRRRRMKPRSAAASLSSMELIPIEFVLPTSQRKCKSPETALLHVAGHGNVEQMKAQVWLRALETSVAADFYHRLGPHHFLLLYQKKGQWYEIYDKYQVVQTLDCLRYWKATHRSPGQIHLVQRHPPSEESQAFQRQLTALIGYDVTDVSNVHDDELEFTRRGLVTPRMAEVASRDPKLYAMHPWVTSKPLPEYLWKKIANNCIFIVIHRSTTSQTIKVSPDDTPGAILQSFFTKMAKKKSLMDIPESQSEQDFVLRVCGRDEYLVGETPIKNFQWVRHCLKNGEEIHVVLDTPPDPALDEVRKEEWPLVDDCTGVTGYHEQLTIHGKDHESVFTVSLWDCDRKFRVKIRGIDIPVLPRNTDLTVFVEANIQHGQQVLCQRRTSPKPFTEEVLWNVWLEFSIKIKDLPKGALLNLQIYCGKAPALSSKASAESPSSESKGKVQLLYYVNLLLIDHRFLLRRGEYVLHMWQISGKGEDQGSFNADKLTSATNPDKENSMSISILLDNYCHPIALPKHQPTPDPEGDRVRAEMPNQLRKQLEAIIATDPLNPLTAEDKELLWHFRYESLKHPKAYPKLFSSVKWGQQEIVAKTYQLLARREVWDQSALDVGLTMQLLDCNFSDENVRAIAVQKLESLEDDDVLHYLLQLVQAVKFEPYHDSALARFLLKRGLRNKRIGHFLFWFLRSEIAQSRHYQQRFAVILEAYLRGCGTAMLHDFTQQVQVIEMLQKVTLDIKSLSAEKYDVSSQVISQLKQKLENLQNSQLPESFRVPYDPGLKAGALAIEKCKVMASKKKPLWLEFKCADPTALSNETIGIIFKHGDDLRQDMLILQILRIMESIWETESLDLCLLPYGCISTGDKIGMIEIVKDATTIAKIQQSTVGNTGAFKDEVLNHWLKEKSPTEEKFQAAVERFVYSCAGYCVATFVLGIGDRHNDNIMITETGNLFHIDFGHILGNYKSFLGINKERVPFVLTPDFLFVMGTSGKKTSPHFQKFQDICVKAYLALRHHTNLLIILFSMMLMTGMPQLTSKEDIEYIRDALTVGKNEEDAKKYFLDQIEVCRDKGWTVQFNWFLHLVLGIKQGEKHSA
T1 sequence (P42336 whole entry): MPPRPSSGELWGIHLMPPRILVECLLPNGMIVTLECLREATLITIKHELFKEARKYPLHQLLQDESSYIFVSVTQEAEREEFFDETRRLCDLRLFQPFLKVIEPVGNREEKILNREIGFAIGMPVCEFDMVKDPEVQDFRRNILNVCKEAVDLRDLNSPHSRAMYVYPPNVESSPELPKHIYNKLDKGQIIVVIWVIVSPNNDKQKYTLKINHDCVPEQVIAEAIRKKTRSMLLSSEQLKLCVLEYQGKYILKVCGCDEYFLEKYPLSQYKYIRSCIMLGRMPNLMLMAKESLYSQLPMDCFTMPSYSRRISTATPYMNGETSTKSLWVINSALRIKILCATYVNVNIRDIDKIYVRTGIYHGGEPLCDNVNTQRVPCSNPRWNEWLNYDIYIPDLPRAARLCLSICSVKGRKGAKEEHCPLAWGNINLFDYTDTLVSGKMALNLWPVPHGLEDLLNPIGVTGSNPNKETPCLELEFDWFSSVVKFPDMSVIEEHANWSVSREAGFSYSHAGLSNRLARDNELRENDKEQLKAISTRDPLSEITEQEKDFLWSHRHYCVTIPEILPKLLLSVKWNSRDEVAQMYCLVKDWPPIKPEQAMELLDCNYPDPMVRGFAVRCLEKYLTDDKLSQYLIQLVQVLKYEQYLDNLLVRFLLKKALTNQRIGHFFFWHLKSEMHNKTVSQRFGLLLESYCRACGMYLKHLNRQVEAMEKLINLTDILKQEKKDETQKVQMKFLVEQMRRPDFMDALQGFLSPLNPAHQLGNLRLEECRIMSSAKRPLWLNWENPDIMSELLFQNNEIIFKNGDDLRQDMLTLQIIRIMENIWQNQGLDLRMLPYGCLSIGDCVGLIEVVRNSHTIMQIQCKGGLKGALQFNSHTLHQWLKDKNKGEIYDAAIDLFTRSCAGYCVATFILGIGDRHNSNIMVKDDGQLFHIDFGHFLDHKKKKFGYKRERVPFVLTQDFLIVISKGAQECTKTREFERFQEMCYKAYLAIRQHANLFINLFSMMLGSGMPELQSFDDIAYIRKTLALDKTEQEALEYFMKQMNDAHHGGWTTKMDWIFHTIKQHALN
T1 sequence (P27986 whole entry partner): as the sequence (P27986 whole entry partner) above
T2 sequence (P42338 whole entry): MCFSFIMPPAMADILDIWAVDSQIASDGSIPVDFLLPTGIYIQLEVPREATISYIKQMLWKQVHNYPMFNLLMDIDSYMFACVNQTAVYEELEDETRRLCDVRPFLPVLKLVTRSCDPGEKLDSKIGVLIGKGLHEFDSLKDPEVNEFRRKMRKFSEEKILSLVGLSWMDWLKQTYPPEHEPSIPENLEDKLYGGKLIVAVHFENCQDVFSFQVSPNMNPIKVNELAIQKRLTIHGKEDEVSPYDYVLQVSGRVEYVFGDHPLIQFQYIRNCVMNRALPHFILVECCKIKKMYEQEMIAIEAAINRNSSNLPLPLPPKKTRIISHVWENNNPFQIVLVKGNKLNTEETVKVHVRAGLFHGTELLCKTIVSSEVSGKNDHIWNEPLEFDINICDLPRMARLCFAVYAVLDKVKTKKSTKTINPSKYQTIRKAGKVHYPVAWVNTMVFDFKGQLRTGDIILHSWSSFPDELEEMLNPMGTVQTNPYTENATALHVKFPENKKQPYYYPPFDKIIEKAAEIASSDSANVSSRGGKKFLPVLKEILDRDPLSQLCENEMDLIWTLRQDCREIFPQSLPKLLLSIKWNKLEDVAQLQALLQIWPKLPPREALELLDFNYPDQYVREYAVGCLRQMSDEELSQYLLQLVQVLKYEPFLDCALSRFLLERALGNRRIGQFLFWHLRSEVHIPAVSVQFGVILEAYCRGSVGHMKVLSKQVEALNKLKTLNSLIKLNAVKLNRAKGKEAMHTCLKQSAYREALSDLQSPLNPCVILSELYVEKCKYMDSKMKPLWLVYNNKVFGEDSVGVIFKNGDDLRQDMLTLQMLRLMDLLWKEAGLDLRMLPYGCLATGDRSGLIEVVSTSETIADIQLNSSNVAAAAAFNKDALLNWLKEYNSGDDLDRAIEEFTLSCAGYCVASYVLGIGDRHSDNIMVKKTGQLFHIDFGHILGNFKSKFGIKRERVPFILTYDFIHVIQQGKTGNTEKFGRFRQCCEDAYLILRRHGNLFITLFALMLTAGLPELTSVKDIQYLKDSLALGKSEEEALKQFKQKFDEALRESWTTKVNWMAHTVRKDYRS
T2 sequence (P27986 whole entry partner): as the sequence (P27986 whole entry partner) above

For `CC(C)(c1cc(-c2cnc(N)cc2Cl)nc(N2CCOCC2)n1)S(=O)(=O)c1cccc(F)c1` [Compound S-70], the IC50 in test [1] (setting [4]) amounted to 22 nM; in test [1] (setting [5]), 22 nM; in test [2], 525 nM; with T47D cells, 219 nM.
For the compound `CC(C)(c1cc(-c2cnc(N)cc2C(F)(F)F)nc(N2CCOCC2)n1)S(=O)(=O)c1ccccc1Cl` [Compound S-80], the IC50 was 474 nM with MCF-7 cells and 31 nM in test [1] (setting [5]).
Turning to `C[C@@H]1COCCN1c1nc(-c2cnc(N)cc2C(F)(F)F)cc(C(C)(C)O)n1` [Compound S-72], the IC50 on PI3K-γ kinase (p110γ) stood at 1150 nM; in test [3], 370 nM; in test [1] (setting [4]), 18 nM; in test [1] (setting [5]), 18 nM; in test [2], 797 nM.
For `CS(=O)(=O)C1(c2cc(-c3cnc(N)cc3C(F)(F)F)nc(N3CCOCC3)n2)CC1` [Compound S-1, 5-(6-(1-(methylsulfonyl)cyclopropyl)-2-morpholinopyrimidin-4-yl)-4-(trifluoromethyl)pyridin-2-amine], the IC50 was 288 nM on PI3K-γ kinase (p110γ) and 16 nM in test [1] (setting [4]).
Regarding `Nc1cc(C(F)(F)F)c(-c2cc(C3(S(=O)(=O)c4ccccc4Cl)CC3)nc(N3CCOCC3)n2)cn1` [Compound S-78], the IC50 came out at 318 nM with MCF-7 cells; 925 nM on PI3K-γ kinase (p110γ); 85 nM in test [3]; 7 nM in test [1] (setting [4]); 7 nM in test [1] (setting [5]); 419 nM in test [2]. Further, the IC50 in the test on T47D cells was found to be 206 nM.
In the case of `CC(C)(c1cc(-c2cnc(N)cc2C(F)(F)F)nc(N2CCOCC2)n1)S(=O)(=O)c1ccccc1F` [Compound S-65], the IC50 worked out at 469 nM in the test on MCF-7 cells; 22 nM in test [1] (setting [4]); 22 nM in test [1] (setting [5]); 1220 nM in test [2]; 280 nM with T47D cells.
In the case of `C[C@H]1COCCN1c1nc(-c2cnc(N)cc2Cl)cc(C(C)(C)O)n1` [Compound S-73], the IC50 stood at 176 nM in the test on MCF-7 cells; 623 nM on PI3K-γ kinase (p110γ); 514 nM in test [3]; 14 nM in test [1] (setting [4]); 14 nM in test [1] (setting [5]); 396 nM in test [2].
On to `C[C@H]1COCCN1c1nc(-c2cnc(N)cc2C(F)(F)F)cc(C2(S(C)(=O)=O)CCCC2)n1` [Compound S-42], for which the IC50 in the test on MCF-7 cells was 159 nM; on PI3K-γ kinase (p110γ), 718 nM; in test [3], 324 nM; in test [2], 1210 nM; in the test with T47D cells, 139 nM.
On to `COC(C)(C)c1cc(-c2cnc(N)cc2C(F)(F)F)nc(N2CCOC[C@H]2C)n1` [Compound S-74], for which the IC50 at PI3K-γ kinase (p110γ) was found to be 2500 nM; in test [3] it was 1010 nM; in test [1] (setting [4]), 28 nM; in test [1] (setting [5]) it was 28 nM; in test [2] it was 2090 nM.
Turning to `Nc1cc(Cl)c(-c2cc(C3(S(=O)(=O)C4CC4)CC3)nc(N3CCOCC3)n2)cn1` [Compound S-87], the IC50 in the test with MCF-7 cells was found to be 170 nM; at PI3K-γ kinase (p110γ), 134 nM; in test [3] it was 117 nM; in test [1] (setting [4]), 14 nM; in test [1] (setting [5]), 14 nM; in test [2], 386 nM. Also, in the test with T47D cells, the IC50 was 101 nM.
As to `CCS(=O)(=O)C1(c2cc(-c3cnc(N)cc3C(F)(F)F)nc(N3CCOCC3)n2)CC1` [Compound S-28], the IC50 on PI3K-γ kinase (p110γ) amounted to 765 nM; in test [3], 78 nM; in test [2], 121 nM.
`CC(C)(c1cc(-c2cnc(N)cc2C(F)(F)F)nc(N2CCOCC2)n1)S(C)(=O)=O` [Compound S-16]: the values for the IC50 (on PI3K-γ kinase (p110γ); in test [3]; in test [2]) were 138 nM, 244 nM and 196 nM, respectively.
In the case of `COc1nc(N)ncc1-c1cc(C2(S(C)(=O)=O)CCC2)nc(N2CCOC[C@@H]2C)n1` [Compound S-43], the IC50 with T47D cells is 317 nM.
